Measured values from paper PMC3768135 (Bioorganic & medicinal chemistry, 2013).

Experiments:
[1] = target: SaFtsZ (Staphylococcus aureus, UniProt P0A031); test: GTPase assay, malachite green phosphate detection; assay type: biochemical
[2] = target: EcFtsZ (Escherichia coli, UniProt P0A9A6); test: GTPase assay, malachite green phosphate detection; assay type: biochemical
[3] = target: T1, BsFtsZ (Bacillus subtilis, UniProt P17865); test: fluorescence anisotropy titration with FtsZ; assay type: binding
T1 sequence (P17865 1-382): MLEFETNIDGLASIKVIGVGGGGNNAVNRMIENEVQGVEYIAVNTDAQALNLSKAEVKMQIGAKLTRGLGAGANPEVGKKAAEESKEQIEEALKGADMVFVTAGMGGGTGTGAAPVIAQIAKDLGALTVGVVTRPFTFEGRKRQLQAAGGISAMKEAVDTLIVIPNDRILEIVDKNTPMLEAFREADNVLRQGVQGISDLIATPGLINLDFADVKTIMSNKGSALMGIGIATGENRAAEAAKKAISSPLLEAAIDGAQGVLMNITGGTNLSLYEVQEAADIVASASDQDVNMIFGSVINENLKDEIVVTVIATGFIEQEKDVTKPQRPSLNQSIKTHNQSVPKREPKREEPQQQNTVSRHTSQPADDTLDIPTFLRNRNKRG

SaFtsZ, sequence (P0A031 whole entry): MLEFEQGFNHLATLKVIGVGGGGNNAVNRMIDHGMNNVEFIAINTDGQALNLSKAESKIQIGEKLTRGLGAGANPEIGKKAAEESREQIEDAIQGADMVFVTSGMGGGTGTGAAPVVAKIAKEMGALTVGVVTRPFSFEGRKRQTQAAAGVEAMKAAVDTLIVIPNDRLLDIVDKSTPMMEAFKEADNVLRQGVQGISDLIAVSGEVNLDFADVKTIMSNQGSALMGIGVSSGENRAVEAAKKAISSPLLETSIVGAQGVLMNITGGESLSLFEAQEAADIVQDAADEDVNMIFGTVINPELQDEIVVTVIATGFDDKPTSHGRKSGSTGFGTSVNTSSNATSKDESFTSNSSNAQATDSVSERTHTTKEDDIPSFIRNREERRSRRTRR
EcFtsZ, sequence (P0A9A6 whole entry): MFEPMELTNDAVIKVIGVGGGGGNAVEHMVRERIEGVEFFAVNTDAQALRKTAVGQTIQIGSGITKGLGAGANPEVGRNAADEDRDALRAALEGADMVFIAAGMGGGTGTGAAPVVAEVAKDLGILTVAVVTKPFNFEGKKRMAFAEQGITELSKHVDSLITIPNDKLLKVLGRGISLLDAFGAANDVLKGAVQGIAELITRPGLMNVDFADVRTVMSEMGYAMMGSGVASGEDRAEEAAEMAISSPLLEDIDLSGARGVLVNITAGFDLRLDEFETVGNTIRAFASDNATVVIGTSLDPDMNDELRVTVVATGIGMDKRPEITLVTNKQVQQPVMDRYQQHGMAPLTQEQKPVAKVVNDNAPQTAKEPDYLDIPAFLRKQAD

Substance | IC50 [1] [µM] | IC50 [2] [µM] | Ka [3]
hemi-chrysophaentin [compound 2] | 38 ± 9 | 37 ± 7 | 
mant-GTP |  |  | (9.9 ± 0.5) × 10^5 (Ka) M^−1
